Assay [1] concerns the target T1, human HCN1 (Homo sapiens, UniProt O60741).
T1 construct: expressed in transfected cells; host or cells: HEK-293H
T1 sequence (O60741 1-890): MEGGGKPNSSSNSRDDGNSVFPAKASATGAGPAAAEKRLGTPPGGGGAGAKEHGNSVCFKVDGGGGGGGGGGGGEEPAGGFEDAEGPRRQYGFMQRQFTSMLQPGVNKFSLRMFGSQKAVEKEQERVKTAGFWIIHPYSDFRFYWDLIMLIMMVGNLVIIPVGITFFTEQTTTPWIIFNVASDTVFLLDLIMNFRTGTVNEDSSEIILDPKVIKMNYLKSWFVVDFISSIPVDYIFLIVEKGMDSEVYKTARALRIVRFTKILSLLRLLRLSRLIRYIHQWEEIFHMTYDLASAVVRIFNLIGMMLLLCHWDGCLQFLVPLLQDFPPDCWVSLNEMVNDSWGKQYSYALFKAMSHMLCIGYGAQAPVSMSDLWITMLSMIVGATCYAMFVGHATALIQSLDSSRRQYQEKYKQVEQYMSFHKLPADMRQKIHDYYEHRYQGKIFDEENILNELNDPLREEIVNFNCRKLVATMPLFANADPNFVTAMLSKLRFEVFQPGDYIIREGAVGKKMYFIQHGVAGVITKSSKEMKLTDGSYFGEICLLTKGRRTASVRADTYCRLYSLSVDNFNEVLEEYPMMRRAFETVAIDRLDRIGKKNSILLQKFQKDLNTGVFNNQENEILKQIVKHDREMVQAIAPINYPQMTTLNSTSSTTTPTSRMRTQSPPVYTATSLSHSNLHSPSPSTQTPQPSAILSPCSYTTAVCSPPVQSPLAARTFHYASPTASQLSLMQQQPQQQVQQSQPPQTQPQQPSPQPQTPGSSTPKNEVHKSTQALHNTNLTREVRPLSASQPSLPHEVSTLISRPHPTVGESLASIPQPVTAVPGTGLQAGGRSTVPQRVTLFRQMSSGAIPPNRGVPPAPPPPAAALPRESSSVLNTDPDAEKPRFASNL
The experiment in a line: MPSD FLIPR 384 well hyperpolarization assay, HCN1. The class given is cell-based. The procedure:
HEK-293H cells stably expressing human HCN1, HCN2, or HCN3 channel were plated at a density of 45-50×10^3 cells/well in a 384 well format fluorescent imaging plate reader system (FLIPR®^384) in 50 μl/well of DMEM supplemented with 10% fetal bovine serum and penicillin/streptomycin. The cells were cultured for 24-48 hours in a 5% CO2/air humidified incubator at 37° C.
The cells seeded on the microtiter plates were incubated in 50 μl HBSS, as described in Example 2. Optionally, HBSS was supplemented with about 25 mM of KCl to further enhance the assay window. A membrane potential sensitive dye (MPSD), Component-A of the Membrane Potential Assay Kit, (Product No. R-8034, Molecular Devices Corporation of Sunnyvale, Calif.) was dissolved in the HBSS solution (1 vial/0.5 L). The excess saline was removed to fit the residual volume of about 1 μl to 5 μl. […]
Membrane potentials were measured at room temperature (21°-23°) for each of the above-described saline conditions using a fluorescent imaging plate reader system (FLIPR®, Molecular Devices of Sunnyvale, Calif.). […]
HEK-293H cells stably expressing human HCN1 channel were plated as described in Example 3 above. […] The change in fluorescence (ΔF) was measured for a total assay time of about 180 seconds. […]

In assay [2] the target is T1, human HCN1. The experiment in a line: Dose response of blockade of hyperpolarization (MPSD FLIPR), HCN1. The settings on record: HEK-293 clone. The class given is cell-based. The procedure: HEK-293H cells stably expressing a human HCN1 channel were plated and incubated in HBSS essentially as described in Examples 3 and 5. CHO-K1 cells stably expressing a human HCN4 channel were plated and incubated in HBSS essentially as described in Example 6. Varying concentrations of ZD7288 were added to HBSS for each of the test wells to determine the dose response of cells expressing HCN1 or HCN4 channels. The percent inhibition of hyperpolarization was calculated for a single dose using the following equation:
The data were fit with a Hill equation as described by the ratio 1/(1+([test agent]/IC50)^k, where IC50 is the concentration of a test agent required to inhibit one-half of the maximum current and k is the Hill coefficient.
FIG. 10A depicts a typical dose response curve for a single HEK-293H HCN1 channel expressing clone in the presence of ZD7288. […] No statistical difference was found between the two means.

Like-named read-outs stand apart in the source and are kept apart here.

This is an account of results in US20090029366A1 (priority 2007, published 2009).

Take `CCN(c1ccccc1)c1cc(=NC)n(C)c(C)n1.Cl` [ZD7288]: the “blockade of hyperpolarization (change in fluorescence)” value on human HCN1 [1] (30 μM ZD7288, HEK-293H HCN1, about 180 seconds) is given as “effectively blocked hyperpolarization”. Besides, on human HCN1 [1] (50 μM ZD7288, cells expressing HCN1), the “blockade of hyperpolarization (change in fluorescence), FIG. 5 legend” value is “effectively blocked hyperpolarization”. Also, the IC50 on human HCN1 [2] (group 1, n=8, mean ± 0.2 μM, read-out: IC50 mean, group 1) came to 2100 nM; at human HCN1 [2] (group 2, n=12, mean ± 0.8 μM, read-out: IC50 mean, group 2), 2900 nM.
